Results taken from paper PMC4826332 (Journal of medicinal chemistry, 2015).
Like-named read-outs stand apart in the source and are kept apart here.

Key:
[1] = target: aryl hydrocarbon receptor (AhR) (Homo sapiens, UniProt P35869); assay: Yeast AhR-signaling assay; format: cell-based
P450 1A1 = target: T1, P450 1A1 (Homo sapiens, UniProt P04798); assay: NADPH-dependency assay, P450 1A1; settings: 10 nM (0.01 μM) inhibitor, with or without 5 min NADPH preincubation
T1 sequence (P04798 1-512): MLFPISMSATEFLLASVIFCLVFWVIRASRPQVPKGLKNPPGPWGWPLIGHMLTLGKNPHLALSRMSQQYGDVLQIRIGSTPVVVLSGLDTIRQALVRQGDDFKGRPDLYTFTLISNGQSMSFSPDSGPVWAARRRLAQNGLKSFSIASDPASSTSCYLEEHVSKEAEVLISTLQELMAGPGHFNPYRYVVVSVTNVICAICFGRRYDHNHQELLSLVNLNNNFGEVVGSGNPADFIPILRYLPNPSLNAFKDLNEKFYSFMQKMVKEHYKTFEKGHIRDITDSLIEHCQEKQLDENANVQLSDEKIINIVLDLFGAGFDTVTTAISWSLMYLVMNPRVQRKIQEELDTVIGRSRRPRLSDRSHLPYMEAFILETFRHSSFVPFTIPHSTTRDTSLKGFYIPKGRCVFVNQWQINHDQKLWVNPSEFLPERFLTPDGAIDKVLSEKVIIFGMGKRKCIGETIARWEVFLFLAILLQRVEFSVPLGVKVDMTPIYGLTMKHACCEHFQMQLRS

CYP1A2 = target: T2, CYP1A2 (Homo sapiens, UniProt P05177); assay: NADPH-dependency assay, P450 1A2; settings: human, pH 7.6, probe methoxyresorufin (MROD), 5 µM
T2 sequence (P05177 1-516): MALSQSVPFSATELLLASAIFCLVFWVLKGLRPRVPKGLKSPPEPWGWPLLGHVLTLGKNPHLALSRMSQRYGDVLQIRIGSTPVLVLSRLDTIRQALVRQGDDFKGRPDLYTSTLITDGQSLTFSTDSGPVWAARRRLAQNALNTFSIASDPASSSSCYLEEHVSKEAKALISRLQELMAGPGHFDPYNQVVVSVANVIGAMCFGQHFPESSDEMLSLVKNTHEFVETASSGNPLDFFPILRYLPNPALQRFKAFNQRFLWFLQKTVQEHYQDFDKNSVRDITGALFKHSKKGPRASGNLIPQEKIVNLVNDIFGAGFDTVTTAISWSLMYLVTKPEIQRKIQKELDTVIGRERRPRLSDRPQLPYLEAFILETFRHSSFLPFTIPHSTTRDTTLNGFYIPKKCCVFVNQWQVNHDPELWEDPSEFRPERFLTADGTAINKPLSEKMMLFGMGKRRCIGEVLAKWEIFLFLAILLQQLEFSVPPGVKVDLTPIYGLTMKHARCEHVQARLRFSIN

P450 1A2 [2] = target: T3, P450 1A2 (Homo sapiens, UniProt P05177); assay: NADPH-dependency assay, P450 1A2; settings: 10 nM inhibitor, without NADPH preincubation
T3 sequence (P05177 1-516): T2 sequence (P05177 1-516)

P450 1A2 [3] = target: T3, P450 1A2; assay: Time-dependent inhibition of P450 1A2; settings: for KI (time-dependent inhibition of P450 1A2): Kitz-Wilson plot
P450 1B1 = target: T4, P450 1B1 (Homo sapiens, UniProt Q16678); assay: NADPH-dependency assay, P450 1B1; settings: 10 nM (0.01 μM) inhibitor, with or without 5 min NADPH preincubation
T4 sequence (Q16678 1-543): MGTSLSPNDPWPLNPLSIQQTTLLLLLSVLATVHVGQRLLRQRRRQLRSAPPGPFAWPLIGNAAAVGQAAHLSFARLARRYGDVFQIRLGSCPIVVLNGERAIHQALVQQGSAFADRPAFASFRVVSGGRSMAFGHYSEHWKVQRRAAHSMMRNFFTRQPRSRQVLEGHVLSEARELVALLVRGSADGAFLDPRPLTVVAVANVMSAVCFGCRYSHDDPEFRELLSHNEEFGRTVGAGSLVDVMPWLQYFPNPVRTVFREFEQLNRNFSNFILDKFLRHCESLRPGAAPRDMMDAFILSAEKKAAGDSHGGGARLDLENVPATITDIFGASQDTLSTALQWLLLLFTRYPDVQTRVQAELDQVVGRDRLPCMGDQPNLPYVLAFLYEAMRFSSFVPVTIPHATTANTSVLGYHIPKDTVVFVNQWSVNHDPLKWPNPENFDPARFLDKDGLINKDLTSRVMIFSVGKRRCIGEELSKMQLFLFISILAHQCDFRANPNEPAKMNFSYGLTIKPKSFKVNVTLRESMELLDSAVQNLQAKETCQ

HepG2 cells = assay: Alamar blue viability assay in HepG2 cells; format: cell-based, human
P450 1A2 in HepG2 cells = target: T5, P450 1A2 in HepG2 cells (Homo sapiens, UniProt P05177); assay: MROD assay in HepG2 cells
T5 sequence (P05177 2-516): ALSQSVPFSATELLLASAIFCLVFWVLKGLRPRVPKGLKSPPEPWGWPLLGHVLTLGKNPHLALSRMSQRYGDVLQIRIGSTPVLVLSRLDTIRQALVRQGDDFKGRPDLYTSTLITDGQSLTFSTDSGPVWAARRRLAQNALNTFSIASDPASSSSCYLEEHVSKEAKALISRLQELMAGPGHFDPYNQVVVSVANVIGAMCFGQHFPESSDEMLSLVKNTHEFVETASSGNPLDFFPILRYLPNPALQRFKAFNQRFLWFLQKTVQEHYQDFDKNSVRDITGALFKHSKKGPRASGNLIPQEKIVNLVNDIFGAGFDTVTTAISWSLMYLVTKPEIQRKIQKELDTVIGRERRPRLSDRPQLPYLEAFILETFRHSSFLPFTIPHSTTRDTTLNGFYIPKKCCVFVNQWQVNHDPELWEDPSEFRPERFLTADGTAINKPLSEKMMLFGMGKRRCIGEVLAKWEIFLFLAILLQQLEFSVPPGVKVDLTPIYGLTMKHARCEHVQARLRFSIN

Sequence of aryl hydrocarbon receptor (AhR) (P35869 11-848): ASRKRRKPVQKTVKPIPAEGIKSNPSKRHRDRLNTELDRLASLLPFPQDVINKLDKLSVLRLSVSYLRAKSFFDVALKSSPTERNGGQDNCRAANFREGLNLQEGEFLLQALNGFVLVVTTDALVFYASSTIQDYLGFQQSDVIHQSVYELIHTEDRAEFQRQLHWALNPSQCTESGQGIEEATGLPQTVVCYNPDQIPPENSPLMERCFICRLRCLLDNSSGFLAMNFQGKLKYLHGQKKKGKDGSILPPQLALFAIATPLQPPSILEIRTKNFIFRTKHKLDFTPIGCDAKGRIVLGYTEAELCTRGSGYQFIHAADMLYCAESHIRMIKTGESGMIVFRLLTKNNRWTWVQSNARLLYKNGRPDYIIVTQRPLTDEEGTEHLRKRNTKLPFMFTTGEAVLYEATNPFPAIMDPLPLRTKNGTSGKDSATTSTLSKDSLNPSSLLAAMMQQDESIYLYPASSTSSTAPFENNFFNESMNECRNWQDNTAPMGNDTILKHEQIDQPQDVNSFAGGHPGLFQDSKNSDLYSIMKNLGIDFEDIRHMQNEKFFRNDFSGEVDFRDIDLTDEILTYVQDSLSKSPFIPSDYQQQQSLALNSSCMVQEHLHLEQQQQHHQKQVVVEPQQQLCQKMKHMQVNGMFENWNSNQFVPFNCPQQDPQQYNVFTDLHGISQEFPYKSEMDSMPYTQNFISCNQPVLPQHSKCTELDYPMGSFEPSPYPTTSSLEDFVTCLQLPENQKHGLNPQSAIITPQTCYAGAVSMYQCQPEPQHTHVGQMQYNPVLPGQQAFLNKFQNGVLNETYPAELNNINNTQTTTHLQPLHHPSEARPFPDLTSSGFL
Sequence of aryl hydrocarbon receptor (AhR) (P27540 whole entry partner): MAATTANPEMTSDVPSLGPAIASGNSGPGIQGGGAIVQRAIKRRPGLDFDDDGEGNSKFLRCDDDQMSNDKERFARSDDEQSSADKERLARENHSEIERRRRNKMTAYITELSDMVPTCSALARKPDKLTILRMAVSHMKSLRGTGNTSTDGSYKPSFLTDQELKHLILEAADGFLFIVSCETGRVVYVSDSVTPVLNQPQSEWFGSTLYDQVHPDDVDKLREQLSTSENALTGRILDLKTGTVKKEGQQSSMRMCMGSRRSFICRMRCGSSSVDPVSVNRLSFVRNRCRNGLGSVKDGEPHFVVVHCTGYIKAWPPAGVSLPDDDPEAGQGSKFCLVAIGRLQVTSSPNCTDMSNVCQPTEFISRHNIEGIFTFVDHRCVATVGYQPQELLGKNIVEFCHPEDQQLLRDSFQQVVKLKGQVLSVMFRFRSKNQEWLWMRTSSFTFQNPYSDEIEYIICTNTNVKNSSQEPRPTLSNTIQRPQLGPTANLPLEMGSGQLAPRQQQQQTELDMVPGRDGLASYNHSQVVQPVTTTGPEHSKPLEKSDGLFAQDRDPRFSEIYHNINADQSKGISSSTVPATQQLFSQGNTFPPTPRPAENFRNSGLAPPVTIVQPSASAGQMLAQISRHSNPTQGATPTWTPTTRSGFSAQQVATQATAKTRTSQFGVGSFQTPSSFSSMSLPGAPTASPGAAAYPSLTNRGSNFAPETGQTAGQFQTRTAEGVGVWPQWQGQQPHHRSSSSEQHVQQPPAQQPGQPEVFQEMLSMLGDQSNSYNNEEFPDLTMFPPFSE

Cc1cc2c(ccc3c(=O)cc(-c4ccccc4)oc32)o1 [Compound 3, 8-Methyl-2-phenyl-4H-furo[2,3-h]chromen-4-one]
concentrations showing considerable activation of AhR ([1]; yeast strain MYA-3637): higher than 10^−7 M
effect on P450 1A1 activity (P450 1A1): does not influence
inhibition at 6 min, 0.01 µM (CYP1A2): 90%
effect on P450 1A2 activity without NADPH preincubation (P450 1A2 [2]): significant inhibition
mode of inhibition of P450 1A2 (time dependence) (P450 1A2 [3]): time-dependent inhibitor
KI (time-dependent inhibition of P450 1A2) (P450 1A2 [3]): 440 nM
mode of inhibition of P450 1A2 (time dependence) (P450 1A2 [3]; listed as 7,8-furanoflavone): time-dependently inhibits
mode of inhibition of P450 1A2 (time dependence) (P450 1A2 [3]; listed as 78FF): time- and NADPH-dependent inhibition
effect on P450 1B1 activity (P450 1B1): does not influence

Cc1cc2c(cc(O)c3c(=O)cc(-c4ccccc4)oc32)o1 [Compound 8, 5-Hydroxy-8-methyl-2-phenyl-4H-furo[2,3-h]chromen-4-one]
effect on P450 1A1 activity (P450 1A1): does not influence
inhibition at 6 min, 0.01 µM (CYP1A2): 90%
mode of inhibition of P450 1A2 (time dependence) (P450 1A2 [3]): time- and NADPH-dependent inhibition
KI (time-dependent inhibition of P450 1A2) (P450 1A2 [3]): 120 nM
effect on P450 1B1 activity (P450 1B1): does not influence

O=c1cc(C(F)(F)F)c2ccc3c(c2o1)C=CCO3 [Compound 20, 4-(Trifluoromethyl)pyrano[2,3-f]chromen-2(8H)-one]
influence on βNF-induced AhR activation ([1]; 10^−4 to 10^−10 M compound combined with 10^−8 M βNF): do not influence
concentration at which AhR is not activated ([1]; yeast AhR activation assays): lower than 1 μM
concentrations at which AhR-signaling pathway is not activated ([1]; yeast strain MYA-3637): lower than 10^−6 M
concentration not toxic to HepG2 cells (HepG2 cells): ≤ 10^−5 M
mode of inhibition of P450 1A2 (time dependence) (P450 1A2 [3]): competitive inhibitor
concentrations decreasing MROD activity in HepG2 cells (P450 1A2 in HepG2 cells; 24 h incubation, read at 10, 30, 60 min): higher than 10^−6 M
concentrations decreasing MROD activity in HepG2 cells (P450 1A2 in HepG2 cells; in-cell P450 1A2 inhibition assays): higher than 1 μM

O=c1cc(-c2ccccc2)oc2ccc3ccccc3c12 [βNF, β-naphthoflavone, reference compound]
activation of AhR-signaling pathway (Abs405/Abs600) ([1]; 10^−8 M, positive control, compared with blank control (1% DMSO)): great activation
effect on MROD activity in HepG2 cells (P450 1A2 in HepG2 cells; 10^−5 M, 24 h incubation, read at 10, 30, 60 min): increased
